# ChEMBL document CHEMBL1158209, “Sindurol and Nephthoside: New Tetraprenyltoluquinols from the Soft Coral Sinularia dura and Nephthea sp” (J Nat Prod, 1996)
# Tested on: P388
# Test: Cytotoxicity against mouse P388 cells
# Format: functional, cell-based
row,Compound,IC50
1,CC(C)=CCC/C(C)=C/CC/C(C)=C/CC/C(C)=C/Cc1cc(O)c(C)cc1O,2 mg/L
2,CC(=O)O[C@@H]1CO[C@@H](Oc2cc(C/C=C(\C)CC/C=C(\C)CC/C=C(\C)CCC=C(C)C)c(O)cc2C)[C@@H](O)[C@@H]1O [NEPHTHOSIDE MANOACETATE],2 mg/L
3,CC(C)=CCC/C(C)=C/CC/C(C)=C/CC/C(C)=C/Cc1cc(O[C@@H]2OC[C@@H](O)[C@@H](O)[C@@H]2O)c(C)cc1O [NEPHTHOSIDE],2 mg/L
4,CC(=O)OCC(O)(C(Cc1cc(O)c(C)cc1O)OC(C)=O)C12CCC(C)(CC(/C=C(\C)CCC=C(C)C)O1)O2 (centres undefined) [SINDUROL],1.2 mg/L
